Experiments:
[1] = system: COS7 cells; assay: Protein biosynthesis by incorporation of [3H]Phe; type: cell-based, monkey; details: for Protein synthesis: LM-2 medium supplement, value in full DMEM medium set to 100, average ± SD of triplicate; for effect on protein biosynthesis: addition to LM-2 medium
From the text: (§1) Unnatural amino acids frequently are toxic to cells. To find out if this is the case for photo-amino acids of the invention, we monitored in COS7 cells protein biosynthesis by incorporation of [^3H]Phe and viability by trypan blue exclusion of cells grown in the presence or absence of the photo-amino acids photo-Leu, photo-Met and photo-Ile. Due to the lack of two essential amino acids in the growth medium, protein biosynthesis is reduced to about 65% of that in a full growth medium. […] Although cells grew slightly slower than in full growth medium, viability (Table 2) and cell morphology (not shown) were unaffected.

[2] = system: COS7 cells; assay: Cell viability by trypan blue exclusion; type: cell-based, monkey; details: LM-2 medium supplement; percent ± SD of viable cells (n = 6)
From the text: as §1

[3] = system: E. coli beta-galactosidase; assay: Activity of beta-galactosidase expressed in cells grown with photo-amino acids; type: cell-based, monkey; details: COS 7 cells, 20 h in LM-2 with photo-amino acid; percent ± SD (n = 6) of value in DMEM + FCS
From the text: We furthermore tested, whether proteins produced by cells grown with photo-amino acids are functional or not. For that, we transfected cells with GFP-fusion constructs of the small GTPase Rab5 and of mutated Rab5 that is constitutively activated (GFP-Rab5QL) or dominant negative (GFP-Rab5SN)^19 and monitored the GFP fluorescence by confocal microscopy. Four hours after transfection, when cells were switched to media containing photo-amino acids, no GFP signal was detectable (see FIG. 7). […] Both, staining intensity and localization were unaffected by the presence of either of the photo-amino acids. Taking into account a frequency of substitution of photo-Met for Met of 35% (see below) and the amounts of Met in Rab5 and GFP, more than 80% of the fusion protein will have photo-Met in both the Rab5- and the GFP-part of the fusion, more than 99% in at least one of the two parts. […] To corroborate this with a quantitative assay, we measured the activity of beta-galactosidase that was expressed in the absence or presence of photo-amino acids (see Table 4). Activity in LM-2 labeling medium was 79% of that in full DMEM. The addition of either of the three photo-amino acids or of a mixture of photo-Met and photo-Leu had no significant additional effect. E. coli beta-galactosidase contains 23 methionines of which on average 8 would be replaced by photo-Met; less than 0.01% of the protein are expected to have no substitution by photo-Met. We conclude that photo-amino acids are non-toxic to cultivated mammalian cells and can, at least partially, functionally replace branched chain amino acids and methionine.

[4] = system: caveolin-1; assay: Photo-crosslinking of transfected caveolin-1 in COS7 cells; type: cell-based, human; details: irradiated samples, COS7 cells in LM-4
Protocol: FIG. 3: Photo-crosslinking induced by photo-amino acids. COS7 cells (panels a,b) or HeLa cells (panel c) were grown in LM-4 (panel a) or LM-2 (panels b,c) in the absence or presence of L-photo-Leu (pL), L-photo-Met (pM) or DL-photo-Ile (pl) or mixtures of them (pLM or PLMI) followed by UV irradiation (+) or no irradiation (−). cross-linked products formed after UV-irradiation were detected by SDS-PAGE followed by western blotting using (a) anti-caveolin 1 to detect overexpressed caveolin 1, (b) anti-stomatin to detect endogenous stomatin or (c) anti-EEA1 to detect endogenous EEA1. In panel b, lanes 8 and 9 show cross-linking with two different concentrations of the chemical cross-linker DSS for comparison of cross-linking efficiency. In panel c, photocrosslinking of endogenous EEA1 by photo-Leu and photo-Met is compared to chemical cross-linking using DSS or para-formaldehyde (PFA) as indicated. Note that chemical cross-linking leads to protein aggregates that are not resolvable by SDS-PAGE while photocrosslinking identifies more than six discrete cross-linked bands.
COS7 (monkey kidney) cells were grown in DMEM high glucose (Gibco no. 11995; with L-glutamine and Na-pyruvate)+10% FCS. Typically, 3 cm2 of cells are needed for a cross-linking experiment with detection by western blotting. At about 70%, medium was replaced by LM-4 (DMEM lacking Met, Leu, Ile and Val and phenol red, supplemented with 5% dialyzed FCS) or by LM-2 (LM-4+1 mM of each Ile and Val). Photo-amino acids were added to a final concentration of 4 mM photo-Leu and photo-Ile, 1.7 mM photo-Met and cells were cultivated for further 22 h followed by washing with PBS and UV-irradiation using a 200 W high pressure mercury lamp (Oriel Photomax) with a glass filter to remove wavelengths shorter 310 nm. The samples were placed at a distance of 38 cm to the light source, corresponding to a illuminated area of 105 mm diameter. […] We used an irradiation time 1-3 min for experiments with living cells. […] Lysis of cells, SDS-PAGE and western blotting were done as described^33. […]

[5] = system: COS7 cells; assay: Cell viability after UV irradiation by trypan blue exclusion; type: cell-based, monkey
Protocol: COS7 (monkey kidney) cells were grown in DMEM high glucose (Gibco no. 11995; with L-glutamine and Na-pyruvate)+10% FCS. Typically, 3 cm2 of cells are needed for a cross-linking experiment with detection by western blotting. At about 70%, medium was replaced by LM-4 (DMEM lacking Met, Leu, Ile and Val and phenol red, supplemented with 5% dialyzed FCS) or by LM-2 (LM-4+1 mM of each Ile and Val). Photo-amino acids were added to a final concentration of 4 mM photo-Leu and photo-Ile, 1.7 mM photo-Met and cells were cultivated for further 22 h followed by washing with PBS and UV-irradiation using a 200 W high pressure mercury lamp (Oriel Photomax) with a glass filter to remove wavelengths shorter 310 nm. The samples were placed at a distance of 38 cm to the light source, corresponding to a illuminated area of 105 mm diameter. […] We used an irradiation time 1-3 min for experiments with living cells. […] Lysis of cells, SDS-PAGE and western blotting were done as described^33. For immunoprecipitation, cells were lysed in 20 mM Hepes/NaOH pH 7.4, 100 mM NaCl, 5 mM EDTA, 1% Triton X 100, 0.5% sodium deoxycholate, the lysate was cleared with protein-A beads and incubated with beads that were preincubated with polyclonal anti-myc or anti-HA antibody. Beads were collected and washed three times each with 20 mM Hepes/NaOH pH 7.25, 0.5% CHAPS and with 100 mM Tris-HCl pH 8.3, 150 mM NaCl, 2 mM EDTA, 0.1% w/v SDS, 0.5% w/v Nonidet P40, 0.5% w/v sodiumdeoxycholate. Proteins were eluted from beads by heating with reducing SDS-PAGE sample buffer.
as §1

[6] = system: HA-tagged human PGRMC1; assay: Competition of PGRMC1 cross-linking by natural amino acids; type: cell-based; details: 3 mM competing amino acid, COS7 cells in LM-4
Protocol: FIG. 4: Specificity of incorporation and cross-linking by photo-Met and photo-Leu. COS7 cells were transfected with HA-tagged human PGRMC1 and were grown in LM-4 in the absence or presence of photo-Leu (A) or photo-Met (B) with addition of 3 mM of the indicated competing amino acid. cross-linked products formed after UV-irradiation were detected by SDS-PAGE followed by western blotting against the HA-epitope. (C) COS7 cells were grown in the presence of 1.7 mM [1-^14C]photo-Met, a constant trace amount of [^3H]Phe and 3 mM of competing unlabeled amino acids as indicated in the legend. Protein was precipitated and protein-bound radioactivity was determined by scintillation counting. […] The control value obtained in the absence of competing amino acid (con) is set to 100. Data are average±SD of triplicate determinations.
If so, addition of the complementary naturally occurring amino acid should strongly reduce incorporation and inhibit photo-crosslinking. […] To find out if competition for cross-linking reflects competition for incorporation, we competed incorporation of [1-^14C]photo-Met with the same set of amino acids (FIG. 4c). […] It should be noted that Met, Val, Leu and Ile all are transported into cells by the L-type transport system^25, which presumably also transports the three photo-amino acids. The strong difference in competition by Met and Leu versus Val and Ile excludes competition at the level of uptake.

[7] = system: COS7 cells; assay: Cell viability after UV irradiation by trypan blue exclusion; type: cell-based, monkey; remark: listed apart in the source

Row | SMILES | Protein synthesis [1] | effect on protein biosynthesis [1] | Cell viability [2] | beta-galactosidase activity [3] | formation of covalent caveolin dimers upon UV irradiation [4] | Cell viability ([5]; 1 min UV) | Cell viability ([5]; 1 min UV + 1 h chase) | Cell viability ([5]; 3 min UV) | Cell viability ([5]; 3 min UV + 1 h chase) | Cell viability ([5]; no UV + 1 h chase at 37 degree Celsius in PBS) | Cell viability ([5]; no UV, percent ± SD of viable cells) | competition of cross-linking by Met, Val, Leu and Ile [6] | Cell viability ([7]; 10 min UV) | Cell viability ([7]; 10 min UV + 1 h chase) | Cell viability ([7]; 30 min UV) | Cell viability ([7]; 30 min UV + 1 h chase)
1 | CC(C(N)C(=O)O)C1(C)N=N1 (stereo not drawn) [photo-Ile, 2R,S-Amino-3-R,S-methyl-4,4′-azi-pentanoic acid] | 62.8 ± 2.8 | no significant effect | 99.6 ± 0.3% | 93 ± 9% | very little cross-linking | – | – | – | – | – | – | – | – | – | – | –
2 | CC1(CC(N)C(=O)O)N=N1 [photo-Leu, L-2-amino-4,4′-azi-pentanoic acid] | 61.5 ± 1.7 | no significant effect | 99.8 ± 0.2% | 68 ± 9% | significant formation of a cross-linked dimer | 99.5 ± 0.2% | 95.5 ± 3.0% | 99.6 ± 0.2% | 95.3 ± 1.8% | 99.3 ± 0.5% | 99.5 ± 0.3% | competed mainly by Leu | 99.5 ± 0.3% | 91.5 ± 4.0% | 98.8 ± 0.4% | 17.9 ± 3.2%

Reference: US20090211893A1, “Photo-Activatable Amino Acids” (priority 2005, published 2009)
